From ChEMBL document CHEMBL3137440, “DNDi T. cruzi fenarimol series dataset from which preclinical candidate EPL-BS0967 was identified (see also related datasets: CHEMBL3137386 and CHEMBL2448688)”
≈ marks a conversion by molar mass, not a printed value.

Assays:
Trypanosoma cruzi [1] = assay: (§1) DNDI: Chagas in Vitro; assay type: functional, Tulahuen C4 (LacZ)
Trypanosoma cruzi [2] = assay: as §1; assay type: functional, organism-based, Tulahuen C4 (LacZ)
in vitro [3] = details: human, microsomes
[4] = DNDI: Solubility in 0.01M HCl at pH 2 determined by nephelometry
[5] = DNDI: Lipophilicity (gLogD) at pH 7.4; details: buffer
in vitro [6] = details: human, microsomes; remark: listed apart in the source
[7] = DNDI: Lipophilicity (gLogD) at pH 3; details: buffer
[8] = DNDI: Cytotoxicity against L-6 rat myoblasts from skeletal musclE; details: L6 rat skeletal muscle myoblasts, IC50
[9] = DNDI: Solubility in phosphate buffer at pH 6.5 determined by nephelometry
Cytochrome P450 3A4 = Cytochrome P450 3A4 (Homo sapiens, UniProt P08684)
Sequence of Cytochrome P450 3A4 (P08684 whole entry): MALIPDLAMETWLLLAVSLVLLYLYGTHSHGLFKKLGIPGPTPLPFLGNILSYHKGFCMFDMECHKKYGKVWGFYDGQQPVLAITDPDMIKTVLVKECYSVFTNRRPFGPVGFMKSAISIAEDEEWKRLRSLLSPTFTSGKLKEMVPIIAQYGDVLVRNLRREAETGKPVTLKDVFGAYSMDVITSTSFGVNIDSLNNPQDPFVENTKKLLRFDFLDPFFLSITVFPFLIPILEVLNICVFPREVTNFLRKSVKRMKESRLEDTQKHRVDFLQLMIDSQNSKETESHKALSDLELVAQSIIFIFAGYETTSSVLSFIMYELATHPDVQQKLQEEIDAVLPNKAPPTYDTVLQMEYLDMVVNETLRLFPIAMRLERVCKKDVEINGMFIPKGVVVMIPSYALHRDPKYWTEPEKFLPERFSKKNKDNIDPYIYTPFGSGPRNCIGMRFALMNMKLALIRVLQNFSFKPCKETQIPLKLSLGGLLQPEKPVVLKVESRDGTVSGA

in vitro [10] = details: human, microsomes; remark: listed apart in the source
[11] = Trypanosoma cruzi, Tulahuen C4 (LacZ)

Compound | IC90 (Trypanosoma cruzi [1]; [11]) | IC50 (Trypanosoma cruzi [2]; [11]) | solubility kinetic [4] | solubility kinetic [9] | IC50 [8] | other results
Cc1ccccc1CN1CCC(N(c2ccc(C(F)(F)F)cc2)c2cccnc2)CC1 | 19 nM | 7 nM | > 100 µg/mL |  |  | half-life (in vitro [3]; t (1 / 2)): 14.1 min; chromatographic logD ([5]; pH 7.4, logD): > 5.3; microsomal CLint (in vitro [6]; CLint): 123 µL/min/mg; chromatographic logD ([7]; pH 3, logD): 2
CC(C)(C)N1CCC(N(c2ccc(C(F)(F)F)cc2)c2cccnc2)CC1 | 1070 nM | 603 nM |  |  |  | 
COc1ccc(CN2CCC(N(c3ccc(C(F)(F)F)cc3)c3cccnc3)CC2)cc1 | 92 nM | 57 nM | > 100 µg/mL | 6.3 µg/mL (≈ 14.3 µM) | 16300 nM | half-life (in vitro [3]; t (1 / 2)): 31 min; chromatographic logD ([5]; pH 7.4, logD): 4.9; microsomal CLint (in vitro [6]; CLint): 56 µL/min/mg; chromatographic logD ([7]; pH 3, logD): 2
Fc1ccccc1CN1CCC(N(c2ccc(C(F)(F)F)cc2)c2cccnc2)CC1 | 40 nM | 21 nM |  |  |  | 
CN(C)S(=O)(=O)c1cccc(N2CCC(N(c3ccc(C#N)cc3)c3cccnc3)CC2)c1 | 11 nM | 6 nM | 50 µg/mL (≈ 108 µM) | < 1.6 µg/mL |  | IC50 (Cytochrome P450 3A4): 6000 nM; half-life (in vitro [3]): 3.4 min; chromatographic logD ([5]; pH 7.4): 3.7; microsomal CLint (in vitro [6]): 504 µL/min/mg; chromatographic logD ([7]; pH 3): 3.6; hepatic extraction ratio (in vitro [10]): 0.97
CC(C)(C)OC(=O)N1CCC(N(c2ccc(Cl)cc2)c2cccnc2)CC1 | 3.26 nM | 1.03 nM |  |  | 52800 nM | 
Cc1ccc(CN2CCC(N(c3ccc(C(F)(F)F)cc3)c3cccnc3)CC2)cc1 | > 100 nM | 67 nM |  |  | 45600 nM | 
Cc1cncc(N2CCC(N(c3ccc(C(F)(F)F)cc3)c3cccnc3)CC2)c1 | 27 nM | 9 nM |  |  |  | 
CC(C)(O)CN1CCC(N(c2ccc(C(F)(F)F)cc2)c2cccnc2)CC1 | 30 nM | 11 nM |  |  |  | 
O=C(c1c(F)cccc1F)N1CCC(N(c2ccc(C(F)(F)F)cc2)c2cccnc2)CC1 | 9 nM | 2 nM |  |  | 48900 nM | 
FC(F)(F)c1ccc(CN2CCC(N(c3ccc(C(F)(F)F)cc3)c3cccnc3)CC2)cc1 | 80 nM | 33 nM |  |  |  | 
CS(=O)(=O)c1ccc(N2CCC(N(c3ccc(Cl)cc3)c3cccnc3)CC2)cc1 | 5.7 nM | 2.18 nM | > 100 µg/mL | < 1.6 µg/mL |  | IC50 (Cytochrome P450 3A4): 2000 nM; half-life (in vitro [3]): 13.1 min; chromatographic logD ([5]; pH 7.4): 3.9; microsomal CLint (in vitro [6]): 132 µL/min/mg; chromatographic logD ([7]; pH 3): 2.3; hepatic extraction ratio (in vitro [10]): 0.88
Cc1cccc(CN2CCC(N(c3ccc(C(F)(F)F)cc3)c3cccnc3)CC2)c1 | 79 nM | 44 nM |  |  | 42900 nM | 

More lines, main results first:

IC90 (Trypanosoma cruzi [1]; [11]) | IC50 (Trypanosoma cruzi [2]; [11]) | solubility kinetic [4] | solubility kinetic [9] | Compound | IC50 [8] | other results
83 nM | 39 nM |  |  | FC(F)(F)c1ccc(N(c2cccnc2)C2CCN(c3ccc(Cl)cn3)CC2)cc1 |  | 
16.6 nM | 7.46 nM |  |  | O=C(c1ccccc1)N1CCC(N(c2ccc(C(F)(F)F)cc2)c2cccnc2)CC1 |  | 
27 nM | 15 nM | > 100 µg/mL | < 1.6 µg/mL | FC(F)(F)c1ccc(N(c2cccnc2)C2CCN(c3ccc(Cl)cc3)CC2)cc1 | > 100000 nM | IC90 (Trypanosoma cruzi [1]): 25 nM; IC50 (Trypanosoma cruzi [2]): 22 nM; half-life (in vitro [3]): 51 min; chromatographic logD ([5]; pH 7.4): > 5.3; microsomal CLint (in vitro [6]): 34 µL/min/mg; chromatographic logD ([7]; pH 3): > 5.3
36 nM | 15 nM |  |  | FC(F)(F)c1ccc(N(c2cccnc2)C2CCN(c3ccccc3C(F)(F)F)CC2)cc1 |  | 
23 nM | 17 nM | > 100 µg/mL | 1.6 µg/mL (≈ 4.01 µM) | FC(F)(F)c1ccc(N(c2cccnc2)C2CCN(c3ncccn3)CC2)cc1 | 53900 nM | half-life (in vitro [3]): 8.8 min; chromatographic logD ([5]; pH 7.4): 4.4; microsomal CLint (in vitro [6]): 196 µL/min/mg; chromatographic logD ([7]; pH 3): 3.5
11 nM | 7 nM | < 1.6 µg/mL | 3.1 µg/mL (≈ 6.65 µM) | FC(F)(F)c1ccc(N2CCC(N(c3ccc(C(F)(F)F)cc3)c3cncnc3)CC2)cc1 | 76500 nM | half-life (in vitro [3]): 25.7 min; chromatographic logD ([5]; pH 7.4): 5.2; microsomal CLint (in vitro [6]): 67.5 µL/min/mg; chromatographic logD ([7]; pH 3): > 5.3
312 nM | 210 nM |  |  | FC(F)(F)c1ccc(N(c2cccnc2)C2CCN(c3cccc(C(F)(F)F)c3)CC2)cc1 | > 100000 nM | 
30 nM | 14 nM | > 100 µg/mL | < 1.6 µg/mL | FC(F)(F)c1ccc(N(c2cccnc2)C2CCN(c3ccccc3)CC2)cc1 | 57400 nM | half-life (in vitro [3]): 29.7 min; chromatographic logD ([5]; pH 7.4): > 5.3; microsomal CLint (in vitro [6]): 58.4 µL/min/mg; chromatographic logD ([7]; pH 3): 4.7
